What all share (assay type): biochemical
Holding throughout (conditions): pH 8.0, 37° C., mean value of 2 experiments

Assay [1] addresses Serratia sp. strain MK1 phospholipase A1 (PLA1), wild-type (naturally occurring; gene SEQ ID NO: 1) (Serratia sp. MK1, UniProt Q9X9D8). Put plainly: kinetic parameters of phospholipase A1 (pH-stat titration of fatty acid released from phosphatidylcholine). Here is the method:
(§1) Catalytic activity of phospholipase A1 was determined using pH-stat titration method. The amount of released fatty acid from enzyme reaction was measured at 37° C. in a pH-stat (Radiometer Copenhagen, France) equipped with autotiter and autoburette. To a substrate solution containing 3.4 mM phosphatidylcholine, 10 mM CaCl2 and 2.6 mM deoxycholic acid, sonicated for emulsification, was added phospholipase A1 enzyme solution and then the amount of released fatty acid was measured. One unit is defined as the amount of enzyme that releases 1μ mole of free fatty acid per minute from phosphatidylcholine at 37° C. and pH 8.0 in a pH-stat.

Assay [2] deals with Serratia sp. strain MK1 phospholipase A1 mutant TA3 (substitutions at positions 32, 39, 65, 105, 153, 158 and 303 with P, A, L, V, I, I and E); SEQ ID NO: 6; DNA (Serratia sp. MK1, UniProt Q9X9D8, E105V/K303E/M153I/Q32P/S158I/S65L/T39A). Kind of assay: kinetic parameters of phospholipase A1 mutant TA3 (pH-stat titration of fatty acid released from phosphatidylcholine).
Excerpt: (§2) The amino acid sequence of TA3 was deduced from the nucleotide sequence of TA3 comprising thermostable phospholipase A1 mutant gene and set forth in SEQ ID NO: 6, and the amino acid sequence of TA13 was deduced from the nucleotide sequence of TA13 and set forth in SEQ ID NO: 7. When the amino acid sequences of thermostable phopholipase mutants, TA3 and TA13 were compared with that of naturally occurring phospholipase A1, TA3 and TA13 were identified as novel proteins with 7 and 6 amino acid substitutions, respectively. Phospholipase TA3 has been identified to have amino acid substitutions at positions of 32, 39, 65, 105, 153, 158 and 303 with P, A, L, V, I, I, and E and phospholipase TA13 has been identified to have amino acid substitutions at positions of 36, 102, 154, 158, 281 and 291 with Q, N, K, W, Q and N, respectively.
as §1

The target of assay [3] is Serratia sp. strain MK1 phospholipase A1 mutant TA13 (substitutions at positions 36, 102, 154, 158, 281 and 291 with Q, N, K, W, Q and N); SEQ ID NO: 7; DNA SEQ (Serratia sp. MK1, UniProt Q9X9D8, E35Q/K290N/L157W/L280Q/M153K/S101N). Kind of assay: kinetic parameters of phospholipase A1 mutant TA13 (pH-stat titration of fatty acid released from phosphatidylcholine).
Excerpt: as §2, §1

Chain of Serratia sp. strain MK1 phospholipase A1 mutant TA13 (substitutions at positions 36, 102, 154, 158, 281 and 291 with Q, N, K, W, Q and N); SEQ ID NO: 7; DNA SEQ (Q9X9D8 entry or part of it E35Q/S101N/M153K/L157W/L280Q/K290N): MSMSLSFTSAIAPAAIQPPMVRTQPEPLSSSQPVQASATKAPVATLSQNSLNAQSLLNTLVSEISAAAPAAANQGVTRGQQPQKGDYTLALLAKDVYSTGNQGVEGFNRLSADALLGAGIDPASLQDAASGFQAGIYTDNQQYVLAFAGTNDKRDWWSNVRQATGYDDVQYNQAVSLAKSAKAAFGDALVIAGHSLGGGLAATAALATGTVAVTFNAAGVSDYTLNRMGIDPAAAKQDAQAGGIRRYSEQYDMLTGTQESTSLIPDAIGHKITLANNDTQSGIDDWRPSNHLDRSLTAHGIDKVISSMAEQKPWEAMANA
Chain of Serratia sp. strain MK1 phospholipase A1 (PLA1), wild-type (naturally occurring; gene SEQ ID NO: 1) (Q9X9D8 entry or part of it): as the sequence (Q9X9D8 entry or part of it E35Q/S101N/M153K/L157W/L280Q/K290N) above, with Q35E, N101S, K153M, W157L, Q280L, N290K counted along it
Chain of Serratia sp. strain MK1 phospholipase A1 mutant TA3 (substitutions at positions 32, 39, 65, 105, 153, 158 and 303 with P, A, L, V, I, I and E); SEQ ID NO: 6; DNA (Q9X9D8 entry or part of it Q32P/T39A/S65L/E105V/M153I/S158I/K303E): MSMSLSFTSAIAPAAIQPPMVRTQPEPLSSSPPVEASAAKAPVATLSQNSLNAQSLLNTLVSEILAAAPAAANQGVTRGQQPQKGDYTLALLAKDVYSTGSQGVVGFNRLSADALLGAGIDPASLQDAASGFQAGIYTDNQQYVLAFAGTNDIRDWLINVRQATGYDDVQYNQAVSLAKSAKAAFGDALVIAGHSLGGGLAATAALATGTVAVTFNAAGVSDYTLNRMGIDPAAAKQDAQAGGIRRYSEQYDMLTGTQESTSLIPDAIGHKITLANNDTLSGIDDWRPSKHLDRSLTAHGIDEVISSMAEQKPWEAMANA

Take phosphatidylcholine: in assay [1], the Kcat came out at 11.23 S^−1; the Kcat/Km was determined as 0.093 S^−1 μM; the Km (in general, the substrate concentration at which the rate is half of its maximum) was 114 µM. Moreover, in assay [2], the Kcat is 10.92 S^−1, the Kcat/Km turned out to be 0.104 S^−1 μM and the Michaelis-Menten constant (Km) was found to be 105 µM. Also, in assay [3], the Kcat came out at 13.67 S^−1, the Kcat/Km was 0.114 S^−1 μM and the Km is 120 µM.

The values are drawn from patent publication US6610524B2, “Thermostable phospholipase A1 mutants and a process for preparing the same” (priority 2000, dated 2003).
